{"source": "patent US4143133A", "about": "“Claudogenic-interceptive nonapeptides” (American Home Products Corporation, priority 1977, dated 1979)", "key": {"[1]": {"test_system": "Mature, female, Sprague-Dawley rats", "assay": "Anti-gravidity (claudogenic/interceptive) test in mated rats", "assay_type": "in vivo", "details": "rat; for Claudogen (D 1-7), Minimal Effective Dose (100% effect): days 1-7 of pregnancy; for Interceptive (D 7-12), Minimal Effective Dose (100% effect): days 7-12 of pregnancy"}, "[2]": {"test_system": "Proestrous female Sprague-Dawley rats", "assay": "Ovulation induction in Nembutal-treated proestrous rats", "assay_type": "in vivo, rat", "details": "for Dose giving ovulation inducing activity in 100 percent of the rats: via the jugular vein, Nembutal 50 mg/kg i.p.", "protocol": "The ovulation-induction properties of the nonapeptides of this invention was determined as follows:\nProestrous female Sprague-Dawley rats were injected intraperitoneally with a hypnotic dose of Nembutal® (50 mg/kg) at 1:30 P.M. Between 1:40 and 1:50 P.M. the rats received the test material via the jugular vein. The following morning the animals were sacraficed and the fallopian tubes examined for ova under a dissecting microscope. […] Thus, in its ovulation induction, the preferred compound of this invention, [D-2-(cyclohexyl)Gly^6, Pro-NHC2 H5^9 ]LHRH is about 10 times as active as [D-Ala^6, Pro-NHC2 H5^9 ]LH-RH and 30 times as active as LH-RH."}, "[3]": {"test_system": "Proestrous female Sprague-Dawley rats", "assay": "Ovulation induction in Nembutal-treated proestrous rats", "assay_type": "in vivo", "details": "P.O.; rat"}, "[4]": {"details": "cited from earlier work"}, "LH secretion": {"test_system": "LH secretion", "details": "cited from earlier work"}}, "data": [{"compound": "CCNC(=O)[C@@H]1CCCN1C(=O)[C@H](CCCNC(=N)N)NC(=O)[C@H](CC(C)C)NC(=O)[C@H](NC(=O)[C@H](Cc1ccc(O)cc1)NC(=O)[C@H](CO)NC(=O)[C@H](Cc1c[nH]c2ccccc12)NC(=O)[C@H](Cc1c[nH]cn1)NC(=O)[C@@H]1CCC(=O)N1)C1CCCCC1", "note": "[Example 5, L-pyroglutamyl-L-histidyl-L-tryptophyl-L-seryl-L-tyrosyl-D-2-(cyclohexyl)glycyl-L-leucyl-L-arginyl-L-prolinethylamide]", "values": [{"measurement": "Claudogen (D 1-7), Minimal Effective Dose (100% effect)", "setting": "[1]; P.O.", "result": 200, "unit": "μ/rat"}, {"measurement": "Interceptive (D 7-12), Minimal Effective Dose (100% effect)", "setting": "[1]; P.O.", "result": "> 1000", "unit": "μ/rat"}, {"measurement": "Claudogen (D 1-7), Minimal Effective Dose (100% effect)", "setting": "[1]; S.C.", "result": "~ 1.0 μ/rat"}, {"measurement": "Interceptive (D 7-12), Minimal Effective Dose (100% effect)", "setting": "[1]; S.C.", "result": "~ 10 μ/rat"}, {"measurement": "Ovulation induction, Minimal Effective Dose (100% effect)", "setting": "[2]; I.V., rat", "result": 0.10, "unit": "μ/rat"}, {"measurement": "Ovulation induction activity relative to LH-RH", "setting": "[2]; rat", "result": "~30", "unit": "times"}, {"measurement": "Ovulation induction activity relative to [D-Ala^6, Pro-NHC2 H5^9 ]LH-RH", "setting": "[2]; rat", "result": "about 10 times"}, {"measurement": "Dose giving ovulation inducing activity in 100 percent of the rats", "setting": "[2]", "result": 0.1, "unit": "μg per rat"}, {"measurement": "Ovulation induction, Minimal Effective Dose (100% effect)", "setting": "[3]", "result": "~ 10 μ/rat"}]}, {"compound": "CCNC(=O)[C@@H]1CCCN1C(=O)[C@H](CCCNC(=N)N)NC(=O)[C@H](CC(C)C)N(C)C(=O)[C@H](NC(=O)[C@H](Cc1ccc(O)cc1)NC(=O)[C@H](CO)NC(=O)[C@H](Cc1c[nH]c2ccccc12)NC(=O)[C@H](Cc1c[nH]cn1)NC(=O)[C@@H]1CCC(=O)N1)C1CCCCC1", "note": "[Example 6]", "values": [{"measurement": "Claudogen (D 1-7), Minimal Effective Dose (100% effect)", "setting": "[1]; P.O.", "result": "> 1000", "unit": "μg/rat"}, {"measurement": "Interceptive (D 7-12), Minimal Effective Dose (100% effect)", "setting": "[1]; P.O.", "result": "> 1000", "unit": "μg/rat"}, {"measurement": "Claudogen (D 1-7), Minimal Effective Dose (100% effect)", "setting": "[1]; S.C.", "result": 10, "unit": "μg/rat"}, {"measurement": "Interceptive (D 7-12), Minimal Effective Dose (100% effect)", "setting": "[1]; S.C.", "result": "~ 10 μg/rat"}, {"measurement": "Ovulation induction, Minimal Effective Dose (100% effect)", "setting": "[2]; i.v., rat", "result": 1.0, "unit": "μg/rat"}, {"measurement": "Dose giving ovulation inducing activity in 100 percent of the rats", "setting": "[2]", "result": 1.0, "unit": "μg per rat"}, {"measurement": "Ovulation induction, Minimal Effective Dose (100% effect)", "setting": "[3]", "result": "> 10", "unit": "μg/rat"}]}, {"compound": "D-Ala^6 -LRH", "values": [{"measurement": "Potency relative to LH-RH", "setting": "[4]; Monahan et al. 1973", "result": "more potent than LH-RH"}]}, {"compound": "D-Ala^6, (N^α -Me)Leu^7 LH-RH", "values": [{"measurement": "Potency in stimulating the secretion of LH, percent of LH-RH's potency", "setting": "LH secretion; Ling et al. 1975", "result": 560, "unit": "%"}]}, {"compound": "LH-RH (QHWSYGLRPG; Gonadoliberin-1; UniProt P01148 24-33, looked up) [native hormone used as comparison in ovulation induction, reference compound]", "values": [{"measurement": "Dose giving ovulation inducing activity in 100 percent of the rats", "setting": "[2]", "result": "about 3 μg per rat"}]}, {"compound": "[D-Ala^6, des-Gly-NH2^10, Proethylamide]LH-RH [reference compound]", "values": [{"measurement": "Potency in stimulating LH secretion relative to D-Ala^6 -LH-RH", "setting": "LH secretion; Coy et al. 1974", "result": "about twice"}, {"measurement": "Dose giving ovulation inducing activity in 100 percent of the rats", "setting": "[2]", "result": "about 1 μg per rat"}]}, {"compound": "des-Gly^10 -Pro-NHC2 H5 -LH-RH", "values": [{"measurement": "Activity relative to LH-RH", "setting": "[4]; Fujino et al. 1972", "result": "three to five times as active as LH-RH"}]}]}
